Reference: ChEMBL document CHEMBL1147252, “New bromotyrosine derivatives from an association of two sponges, Jaspis wondoensis and Poecillastra wondoensis” (2003)
Values after ≈ are worked out from the molar mass of the structure shown.

Experiments:
Format in all cases: functional
Staphylococcus aureus [1] = experiment: Antibacterial activity against methicillin-resistant Staphylococcus aureus KIST4 after 18 hrs
Staphylococcus aureus [2] = experiment: Antibacterial activity against methicillin-resistant Staphylococcus aureus Y-80-12-844 after 18 hrs
Staphylococcus aureus [3] = experiment: Antibacterial activity against methicillin-resistant Staphylococcus aureus KIST3 after 18 hrs
[4] = tested on: Staphylococcus epidermidis; experiment: Antibacterial activity against ofloxacin-resistant Staphylococcus epidermidis 178 after 18 hrs
Staphylococcus aureus [5] = experiment: Antibacterial activity against methicillin-resistant Staphylococcus aureus 003 after 18 hrs
Staphylococcus aureus [6] = experiment: Antibacterial activity against methicillin-resistant Staphylococcus aureus 004 after 18 hrs
[7] = tested on: Staphylococcus epidermidis; experiment: Antibacterial activity against ofloxacin-resistant Staphylococcus epidermidis 291 after 18 hrs
Staphylococcus aureus [8] = experiment: Antibacterial activity against methicillin-resistant Staphylococcus aureus KIST1 after 18 hrs
Staphylococcus aureus [9] = experiment: Antibacterial activity against methicillin-resistant Staphylococcus aureus Y-80-12-1109 after 18 hrs
Staphylococcus aureus [10] = experiment: Antibacterial activity against methicillin-resistant Staphylococcus aureus Y-80-12-1999 after 18 hrs
Staphylococcus aureus [11] = experiment: Antibacterial activity against methicillin-resistant Staphylococcus aureus KIST2 after 18 hrs
A549 = experiment: Cytotoxicity against human A549 cells; settings: read-out: ED50 (the source's name)
SK-MEL-2 = experiment: Cytotoxicity against human SK-MEL-2 cells; settings: read-out: ED50 (the source's name)
SK-OV-3 = experiment: Cytotoxicity against human SKOV3 cells; settings: read-out: ED50 (the source's name)
HCT-15 = experiment: Cytotoxicity against human HCT15 cells; settings: read-out: ED50 (the source's name)
XF498 = experiment: Cytotoxicity against human XF498 cells; settings: read-out: ED50 (the source's name)

Compound: O=C(NCCSSSCCNC(=O)/C(Cc1ccc(O)c(Br)c1)=N/O)/C(Cc1ccc(O)c(Br)c1)=N/O
- MIC (Staphylococcus aureus [1]): 3.1 µg/mL (≈ 4.45 µM)
- MIC (Staphylococcus aureus [2]): 25 µg/mL (≈ 35.9 µM)
- MIC (Staphylococcus aureus [3]): 6.3 µg/mL (≈ 9.05 µM)
- MIC [4]: 0.8 µg/mL (≈ 1.15 µM)
- MIC (Staphylococcus aureus [5]): 3.1 µg/mL (≈ 4.45 µM)
- MIC (Staphylococcus aureus [6]): 3.1 µg/mL (≈ 4.45 µM)
- MIC [7]: 0.8 µg/mL (≈ 1.15 µM)
- MIC (Staphylococcus aureus [8]): 3.1 µg/mL (≈ 4.45 µM)
- MIC (Staphylococcus aureus [9]): 6.3 µg/mL (≈ 9.05 µM)
- MIC (Staphylococcus aureus [10]): 6.3 µg/mL (≈ 9.05 µM)
- MIC (Staphylococcus aureus [11]): 3.1 µg/mL (≈ 4.45 µM)

Compound: O=C(NCCSSCCNC(=O)/C(Cc1cc(Br)c(O)c(Br)c1)=N/O)/C(Cc1ccc(O)c(Br)c1)=N/O
- MIC (Staphylococcus aureus [1]): 12.5 µg/mL (≈ 16.8 µM)
- EC50 (A549): 1.34 µg/mL (≈ 1.8 µM)
- MIC (Staphylococcus aureus [2]): 25 µg/mL (≈ 33.6 µM)
- EC50 (SK-MEL-2): 0.9 µg/mL (≈ 1.21 µM)
- MIC (Staphylococcus aureus [3]): 12.5 µg/mL (≈ 16.8 µM)
- MIC [4]: 3.2 µg/mL (≈ 4.31 µM)
- MIC (Staphylococcus aureus [5]): 12.5 µg/mL (≈ 16.8 µM)
- MIC (Staphylococcus aureus [6]): 12.5 µg/mL (≈ 16.8 µM)
- EC50 (SK-OV-3): 1.38 µg/mL (≈ 1.86 µM)
- MIC [7]: 3.2 µg/mL (≈ 4.31 µM)
- MIC (Staphylococcus aureus [8]): 12.5 µg/mL (≈ 16.8 µM)
- MIC (Staphylococcus aureus [9]): 12.5 µg/mL (≈ 16.8 µM)
- MIC (Staphylococcus aureus [10]): 12.5 µg/mL (≈ 16.8 µM)
- EC50 (HCT-15): 3.31 µg/mL (≈ 4.45 µM)
- MIC (Staphylococcus aureus [11]): 12.5 µg/mL (≈ 16.8 µM)
- EC50 (XF498): 0.92 µg/mL (≈ 1.24 µM)

Compound: O=C(NCCSSCCNC(=O)/C(Cc1cc(Br)c(O)c(-c2cc(C/C(=N\O)C(=O)NCCSSCCNC(=O)/C(Cc3ccc(O)c(Br)c3)=N/O)cc(Br)c2O)c1)=N/O)/C(Cc1ccc(O)c(Br)c1)=N/O [BISAPRASIN]
- MIC (Staphylococcus aureus [1]): 6.3 µg/mL (≈ 4.75 µM)
- EC50 (A549): 3.4 µg/mL (≈ 2.56 µM)
- MIC (Staphylococcus aureus [2]): 25 µg/mL (≈ 18.8 µM)
- EC50 (SK-MEL-2): 2.94 µg/mL (≈ 2.22 µM)
- MIC (Staphylococcus aureus [3]): 6.3 µg/mL (≈ 4.75 µM)
- MIC [4]: 6.3 µg/mL (≈ 4.75 µM)
- MIC (Staphylococcus aureus [5]): 12.5 µg/mL (≈ 9.42 µM)
- MIC (Staphylococcus aureus [6]): 6.3 µg/mL (≈ 4.75 µM)
- EC50 (SK-OV-3): 2.78 µg/mL (≈ 2.1 µM)
- MIC [7]: 12.5 µg/mL (≈ 9.42 µM)
- MIC (Staphylococcus aureus [8]): 12.5 µg/mL (≈ 9.42 µM)
- MIC (Staphylococcus aureus [9]): 50 µg/mL (≈ 37.7 µM)
- MIC (Staphylococcus aureus [10]): 50 µg/mL (≈ 37.7 µM)
- EC50 (HCT-15): 6 µg/mL (≈ 4.52 µM)
- MIC (Staphylococcus aureus [11]): 6.3 µg/mL (≈ 4.75 µM)
- EC50 (XF498): 2.44 µg/mL (≈ 1.84 µM)

Compound: O=C(NCCSSCCNC(=O)/C(Cc1ccc(Oc2cc(C/C(=N\O)C(=O)NCCSSCCNC(=O)/C(Cc3ccc(O)c(Br)c3)=N/O)cc(Br)c2O)c(Br)c1)=N/O)/C(Cc1ccc(O)c(Br)c1)=N/O [BISPSAMMAPLIN A]
- MIC (Staphylococcus aureus [1]): > 50 µg/mL
- EC50 (A549): 1.53 µg/mL (≈ 1.15 µM)
- MIC (Staphylococcus aureus [2]): > 50 µg/mL
- EC50 (SK-MEL-2): 1.02 µg/mL (≈ 0.769 µM)
- MIC (Staphylococcus aureus [3]): > 50 µg/mL
- MIC [4]: > 50 µg/mL
- MIC (Staphylococcus aureus [5]): > 50 µg/mL
- MIC (Staphylococcus aureus [6]): > 50 µg/mL
- EC50 (SK-OV-3): 1.52 µg/mL (≈ 1.15 µM)
- MIC [7]: > 50 µg/mL
- MIC (Staphylococcus aureus [8]): > 50 µg/mL
- MIC (Staphylococcus aureus [9]): > 50 µg/mL
- MIC (Staphylococcus aureus [10]): > 50 µg/mL
- EC50 (HCT-15): 3.35 µg/mL (≈ 2.52 µM)
- MIC (Staphylococcus aureus [11]): > 50 µg/mL
- EC50 (XF498): 1.1 µg/mL (≈ 0.829 µM)

Compound: COc1cccc2c1C(=O)c1c(O)c3c(c(O)c1C2=O)C[C@@](O)(C(=O)CO)C[C@@H]3O[C@H]1C[C@H](N)[C@H](O)[C@H](C)O1 [DOXORUBICIN]
- EC50 (A549): 0.04 µg/mL (≈ 0.0736 µM)
- EC50 (SK-MEL-2): 0.03 µg/mL (≈ 0.0552 µM)
- EC50 (SK-OV-3): 0.15 µg/mL (≈ 0.276 µM)
- EC50 (HCT-15): 0.09 µg/mL (≈ 0.166 µM)
- EC50 (XF498): 0.1 µg/mL (≈ 0.184 µM)

Compound: C[C@@H](O)[C@H]1C(=O)N2C(C(=O)O)=C(S[C@@H]3CN[C@H](C(=O)N(C)C)C3)[C@H](C)[C@H]12 [MEROPENEM]
- MIC (Staphylococcus aureus [1]): 50 µg/mL (≈ 130 µM)
- MIC (Staphylococcus aureus [2]): 50 µg/mL (≈ 130 µM)
- MIC (Staphylococcus aureus [3]): 50 µg/mL (≈ 130 µM)
- MIC [4]: 0.8 µg/mL (≈ 2.09 µM)
- MIC (Staphylococcus aureus [5]): 3.1 µg/mL (≈ 8.08 µM)
- MIC (Staphylococcus aureus [6]): 3.1 µg/mL (≈ 8.08 µM)
- MIC [7]: 1.6 µg/mL (≈ 4.17 µM)
- MIC (Staphylococcus aureus [8]): 25 µg/mL (≈ 65.2 µM)
- MIC (Staphylococcus aureus [9]): 50 µg/mL (≈ 130 µM)
- MIC (Staphylococcus aureus [10]): 50 µg/mL (≈ 130 µM)
- MIC (Staphylococcus aureus [11]): 3.1 µg/mL (≈ 8.08 µM)

Compound: O=C(NCCSSCCNC(=O)/C(Cc1ccc(O)c(Br)c1)=N/O)/C(Cc1ccc(O)c(Br)c1)=N/O [PSAMMAPLIN A]
- EC50 (A549): 0.57 µg/mL (≈ 0.858 µM)
- EC50 (SK-MEL-2): 0.13 µg/mL (≈ 0.196 µM)
- EC50 (SK-OV-3): 0.14 µg/mL (≈ 0.211 µM)
- EC50 (HCT-15): 0.68 µg/mL (≈ 1.02 µM)
- EC50 (XF498): 0.57 µg/mL (≈ 0.858 µM)

Compound: COC(=O)NCCSSCCNC(=O)/C(Cc1ccc(O)c(Br)c1)=N/O [PSAMMAPLIN D]
- MIC (Staphylococcus aureus [1]): > 25 µg/mL
- EC50 (A549): 0.8 µg/mL (≈ 1.72 µM)
- MIC (Staphylococcus aureus [2]): > 25 µg/mL
- EC50 (SK-MEL-2): 0.2 µg/mL (≈ 0.429 µM)
- MIC (Staphylococcus aureus [3]): > 25 µg/mL
- MIC [4]: > 25 µg/mL
- MIC (Staphylococcus aureus [5]): > 25 µg/mL
- MIC (Staphylococcus aureus [6]): > 25 µg/mL
- EC50 (SK-OV-3): 0.17 µg/mL (≈ 0.365 µM)
- MIC [7]: > 25 µg/mL
- MIC (Staphylococcus aureus [8]): > 25 µg/mL
- MIC (Staphylococcus aureus [9]): > 25 µg/mL
- MIC (Staphylococcus aureus [10]): > 25 µg/mL
- EC50 (HCT-15): 1.23 µg/mL (≈ 2.64 µM)
- MIC (Staphylococcus aureus [11]): > 25 µg/mL
- EC50 (XF498): 0.6 µg/mL (≈ 1.29 µM)
